Read-outs that look alike come from different tables or passages of the source.
Tests used:
in vivo = format: in vivo; settings: mouse; for half-life / Kp / AUC / CL/F / Cmax: both sexes, ip; for Kp: C57/B6, brain/serum, read-out: Brain to sera AUC ratio
Protocol: In pharmacokinetic studies, mice were not randomized to groups but instead assigned to treatment and time points such that there was no gender of weight bias. Studies were initiated in the morning and following treatment mice were euthanized by CO2 asphyxiation and cervical dislocation at predetermined time points (0.25, 0.5, 1, 2, 4, 8, 12, and 24 h) (n = 3–4 animals per time point). Blood (via cardiac puncture), brain, liver, and kidney were rapidly collected, tissues were snap‐frozen in liquid nitrogen, and stored at −80°C prior to further analysis. Sera (20–100 μL) was obtained by low‐speed centrifugation at 2000 × g for 10 min at 6°C. Tissues were suspended in phosphate‐buffered saline (PBS, 1:5, w/v) and homogenized via mechanical homogenization before preparation for LC‐MS/MS analysis.
Samples (3 μL) were injected onto a Kinetex PFP (50 × 2.1 mm, 1.7 μm particle size) UPLC column and eluted with a binary gradient consisting of water with 0.1% formic acid (mobile phase A) and methanol with 0.1% formic acid (mobile phase B). Initially, 5% mobile phase B was held for 0.4 min at a flow rate of 0.3 mL/min, then increased linearly to 85% over 2.6 min. This composition was held constant for 0.5 min then returned to initial conditions within 6 sec and equilibrated for an additional 1.8 min. Eluent was directed to waste for the initial 0.4 min then to an ABI Sciex 6500 Qtrap tandem mass spectrometer. […] Where necessary, samples were diluted in blank matrices for analysis. Methods were developed using the criteria presented in the FDA bioanalytical guidance document (www.fda.gov, 2013).
Pharmacokinetic outcomes were obtained via standard noncompartmental methods using Kinetica (version 5.1, Thermo Fisher Scientific, Waltham, MA). The maximum concentration (C max) was obtained directly from the concentration–time profiles. Area under the concentration–time curve (AUC) from time zero to the last collected time point was determined using the trapezoidal method with linear up/log down interpolation. For sera and urine, data above the limit of detection but below the LLOQ were computed as LLOQ/2 (7 nmol/L, 7.5 μg/mL, respectively) to allow for the recovery of the terminal half‐life as reported previously (Beal 2001). To obtain estimates of variability around the mean of AUC and C max, the method of Bailer–Satterwaithe was employed due to the destructive sampling approach (Nedelman et al. 1995). Furthermore, as a result of the destructive sampling approach outcomes for half‐life, apparent volume of distribution and apparent clearance could not be reported with a term for uncertainty.

[1] = tested on: gamma‐butyrolactone‐treated mice; assay: GBL‐mediated response protection by NCS‐382 in the absence and presence of diclofenac; format: in vivo; settings: mouse
Protocol: Wild‐type C57/B6 mice (mixed gender, n = 7) were bred in‐house, weaned at day of life (DOL) 21, and randomized to a treatment sequence (Fig. 2). […] Thirty minutes later, mice were given an i.p. injection of GBL (100 mg/kg diluted in PBS) and were placed into a clean round arena (~10 inches in diameter) and were allowed access to food and water. Mice were recorded on a camera operated by Serena acquisition software (recorded for 10 min). At 5 and 10 min following GBL, righting reflex was assessed. These procedures were repeated daily with ~24 h in between sessions. Data file names were coded such that treatments were blinded at the time of video data analysis. During video data analysis, the time of which noticeable loss of motor function or coordination (e.g., “loss of motor function”) was observed, and the time taken for the subject to enter a dissociative state and fall into an unsupported prone position (e.g., “time to loss of motion”) was monitored. Righting reflex was evaluated by placing the mouse in a supine position and the time to return to all four paws was recorded based on the timestamp of the playback video. Data for each treatment group were expressed as the mean and standard deviation, and statistical significance was evaluated using one‐way ANOVA and Tukey post hoc t test (P < 0.05).
Wild‐type C57/B6 mice (mixed gender, n = 7) were bred in‐house, weaned at day of life (DOL) 21, and randomized to a treatment sequence. […] Thirty minutes later, mice were given an i.p. injection of GBL (100 mg/kg in PBS) and were placed into a clean round arena (~10 inches in diameter) and were allowed access to food and water. Mice were recorded on a camera operated by Sirena acquisition software (recorded for 10 min). At 5 and 10 min following GBL, righting reflex was assessed. These procedures were repeated daily with ~24 h in between sessions. Data files names were coded such that video analysis was blinded at the time of data recording.

[2] = Metabolite formation kinetics in MLMs; format: in vitro ADME; settings: mouse liver microsomes
Protocol: Microsomal incubations were conducted as described above with modifications. […] The K m was calculated using nonlinear regression in Graphpad Prism. Due to the lack of authentic standard and relatively short rate of parent disappearance, the maximum formation velocity (V max) could not be determined for either metabolites.

GHB receptor = target: GHB receptor; set-up: method as in Molnár et al. 2006; settings: ref Molnár et al. 2006; cited from earlier work
rat [3] = tested on: rat; set-up: method as in Baker et al., 2008; settings: rat, 25, 50, 100 mg/kg i.g.; ref Baker et al., 2008; cited from earlier work
pigeon = tested on: pigeon; set-up: method as in Koek et al., 2006; settings: pigeon, 54, 178, 320, 560 mg/kg, route ns; ref Koek et al., 2006; cited from earlier work
rat [4] = tested on: rat; set-up: method as in Hicks et al., 2004; settings: 50 mg/kg i.v., ref Hicks et al., 2004; cited from earlier work
rat [5] = tested on: rat; set-up: method as in Lamb et al., 2003; settings: rat, 3.2, 32 mg/kg i.p; ref Lamb et al., 2003; cited from earlier work
rat [6] = tested on: rat; set-up: method as in Nava et al., 2001; settings: dose n.s., i.p., ref Nava et al., 2001; cited from earlier work
mouse = tested on: mouse; set-up: method as in Martellotta et al., 1998; settings: 12.5 mg/kg i.p., ref Martellotta et al., 1998; cited from earlier work
rat [7] = tested on: rat; set-up: method as in Snead III, 1996; settings: 100-500 mg/kg i.p., ref Snead III, 1996; cited from earlier work
rat [8] = tested on: rat; set-up: method as in Colombo et al., 1995; settings: rat, 12.5, 25, 50 mg/kg i.p.; ref Colombo et al., 1995; cited from earlier work
[9] = 100 mg/kg i.p., tissue density assumed equal to water
[10] = 300 mg/kg i.p., tissue density assumed equal to water
[11] = 500 mg/kg i.p., tissue density assumed equal to water

## O=C(O)/C=C1\CCCc2ccccc2C1O (stereo not drawn) [NCS‐382, 6,7,8,9‐tetrahydro‐5‐hydroxy‐5H‐benzo‐cyclohept‐6‐ylideneacetic acid]
In vivo; C57/B6, brain, 100 mg/kg i.p., read-out: Brain t 1/2 (converted)
  half-life: 58 min
In vivo; C57/B6, brain, 300 mg/kg i.p., read-out: Brain t 1/2 (converted)
  half-life: 53 min
In vivo; C57/B6, brain, 500 mg/kg i.p., read-out: Brain t 1/2 (converted)
  half-life: 45.7 min
In vivo; 100 mg/kg i.p.
  Kp: 1.2
  Serum V/F: 2.62 L/kg
  time after administration up to which detectable in sera: up to 4 h
  time after administration up to which quantifiable in brain: up to 8 h
  time after administration up to which quantifiable in kidney: up to 4 h
  time after administration up to which quantifiable in liver: up to 2 h
  time after administration up to which quantifiable in sera: up to 2 h
In vivo; 300 mg/kg i.p.
  Kp: 0.72
  Serum V/F: 2.93 L/kg
In vivo; 500 mg/kg i.p.
  Kp: 1.8
  Serum V/F: 4.25 L/kg
In vivo; C57/B6, kidney, 100 mg/kg i.p., read-out: Kidney t 1/2 (converted)
  half-life: 18.5 min
In vivo; C57/B6, serum, 100 mg/kg i.p.
  AUC: 119 ± 38 µM·h
  CL/F: 63.3 mL/min/kg
  Cmax: 241 ± 106 µM
In vivo; C57/B6, serum, 100 mg/kg i.p., read-out: Serum t 1/2 (converted)
  half-life: 14.6 min
In vivo; C57/B6, serum, 300 mg/kg i.p.
  AUC: 436 ± 42 µM·h
  CL/F: 52.5 mL/min/kg
  Cmax: 374 ± 49 µM
In vivo; C57/B6, serum, 300 mg/kg i.p., read-out: Serum t 1/2 (converted)
  half-life: 28.1 min
In vivo; C57/B6, serum, 500 mg/kg i.p.
  AUC: 717 ± 83 µM·h
  CL/F: 53.2 mL/min/kg
  Cmax: 451 ± 49 µM
In vivo; C57/B6, serum, 500 mg/kg i.p., read-out: Serum t 1/2 (converted)
  half-life: 41 min
In vivo; [9]
  Brain AUC: 139 ± 60 µM·h
  Brain Cmax: 60 ± 9.5 µM
  Kidney AUC: 24.5 ± 5.3 µM·h
  Kidney Cmax: 23.6 ± 3.0 µM
  Liver AUC: 1150 ± 595 µM·h
  Liver Cmax: 1695 ± 2030 µM
In vivo; [10]
  Brain AUC: 313 ± 33 µM·h
  Brain Cmax: 141 ± 45 µM
In vivo; [11]
  Brain AUC: 1280 ± 175 µM·h
  Brain Cmax: 530 ± 70 µM
[1]; NCS‐382 300 mg/kg with diclofenac 25 mg/kg i.p. 30 min before GBL 100 mg/kg i.p.
  time to loss of motor function compared to vehicle control: significantly improved
[1]; given alone i.p. (NCS‐382 300 mg/kg or diclofenac 25 mg/kg) 30 min before GBL 100 mg/kg i.p.
  time to loss of motor function compared to vehicle control: trended toward increasing
[2]; 120 min, read-out: Km for dehydrogenation
  Km: 29.5 ± 10 µM
[2]; saturation not obtained, read-out: Km for glucuronidation
  Km: > 100 µM
GHB receptor
  Ki: 1200 nM
Rat [3]
  GHB's (300 mg/kg) discriminative stimulus effects: GHB's (300 mg/kg) discriminative stimulus effects were obliterated by the GABAB receptor antagonist, CGP-35348 and slightly attenuated by NCS 382.
pigeon
  effects of diazepam: GHB, its precursors 1,4-BD and GBL, and NCS-382 did not attenuate the effects of diazepam.
Rat [4]
  increase in heart rate induced by GHB: reversed the ↑ in heart rate
  pressor response induced by GHB: not the pressor response
Rat [5]
  motor effects of GHB: NCS-382 did not antagonize the motor effects of GHB, consistent with the belief that many of the behavioral actions of exogenously administered GHB result from GHB's actions at sites other than the GHB receptor.
Rat [6]
  GHB-induced decrease of hippocampal acetylcholine release: GHB-induced ↓ of hippocampal acetylcholine release is mediated by GABAB receptors, based on ineffective blocking by NCS-382.
mouse
  abuse potential of GHB: GHB was shown to have abuse potential, which was blocked by NCS-382.
Rat [7]
  two chemically induced models for absence seizures: NCS-382 was protective against two chemically induced models for absence seizures.
Rat [8]
  discriminative stimulus effects of GHB: Blockade of the discriminative stimulus effects of gamma-hydroxybutyric acid (GHB) by the GHB receptor antagonist NCS-382.

Reference: paper PMC5115179 (Pharmacology Research & Perspectives, 2016)
